In article PMC12829161 (BMC Microbiology, 2025):
Where a name gives a salt, the structure may show the parent alone. Bridge positions count the residues as written; N and C are the ends. Square brackets hold non-standard residues; d marks the D form. Peptide text beside a SMILES is read from it. * marks the point of attachment. X1 = CC[C@H](C)CCCCC(=O)*; Dab = NCC[C@H](N)C(=O)O

What was measured:
Format in all cases: cell-based, Pseudomonas aeruginosa
PAO1 biofilm [1] = test system: PAO1 biofilm
PA14 biofilm [2] = test system: PA14 biofilm
PAO1 biofilm [3] = test system: PAO1 biofilm; remark: listed apart in the source
PA14 biofilm [4] = test system: PA14 biofilm; remark: listed apart in the source

## CC[C@H](C)CCCCC(=O)N[C@@H](CCN)C(=O)N[C@H](C(=O)N[C@@H](CCN)C(=O)N[C@H]1CCNC(=O)[C@H]([C@@H](C)O)NC(=O)[C@H](CCN)NC(=O)[C@H](CCN)NC(=O)[C@H](CC(C)C)NC(=O)[C@@H](Cc2ccccc2)NC(=O)[C@H](CCN)NC1=O)[C@@H](C)O [Polymyxin B, Polymyxin B sulfate] (X1-[Dab]T[Dab][Dab][Dab][dF]L[Dab][Dab]T; lactam 4-C (inferred); N-terminus assumed)
PAO1 biofilm [1]
  Biofilm viability (TTC), % of untreated control: 65 (± 20) %
  Concentration at which total bacterial growth (OD600) is significantly inhibited: 4 µg/mL
  Increase in biofilm mass (CV) vs untreated control: over 200%
  Total bacterial growth (OD600), % of untreated control: approximately 170 (± 48) %
PA14 biofilm [2]
  Biofilm inhibition (CV) at sub-MICs and MICs vs untreated control: no significant biofilm inhibition
  Biofilm viability (TTC), % of untreated control: approximately 6 (±6) %
  Concentration at which total bacterial growth (OD600) is significantly inhibited: 2 µg/mL
  Increase in bacterial cells (total growth, OD600): No statistically significant increase
PAO1 biofilm [3]
  Reduction of total growth (OD600) vs untreated control: at least 70%
PA14 biofilm [4]
  Reduction of total growth (OD600) vs untreated control: at least 70%
